From patent US12187663B2, “Thyromimetics with a biphenylmethane scaffold and their use” (INTERNATIONAL SOCIETY FOR DRUG DEVELOPMENT S.R.L., priority 2019, dated 2025)

How the values were obtained:
[1] = system: pancreatic acinar cells; experiment: Pancreatic acinar cell proliferation (BrdU labeling index); assay type: in vivo, rats; conditions: one week; T3 4 mg/kg diet; GC1 50 μg/kg gavage once daily; TG68 and IS25 50 μg/kg in drinking water
Method: FIG. 9. […] BrdU (1 mg/ml) in drinking water was given all throughout the experimental time. […] LI was expressed as number of BrdU-positive acinar cell nuclei/100 nuclei. At least 2000 acinar cells per pancreas were scored. Results are expressed as means±SE of 3 to 5 rats per group. (one way ANOVA). ***Statistically significant from control; P<0.001.
BrdU (1 mg/ml) in drinking water was given all throughout the experimental time. […] LI was expressed as number of BrdU-positive acinar cell nuclei/100 nuclei. At least 2000 acinar cells per pancreas were scored.

[2] = known property of the reference; cited from earlier work
[3] = system: AMPK; experiment: Western blot of phosphorylated AMPK in HepG2 cells; assay type: cell-based, Human; conditions: twenty-four hours of treatment, dose dependent
Method: (§1) Human hepatocellular carcinoma cells (HepG2), obtained from American Type Culture Collection (Manassas, Va., USA), were cultured in low-glucose (LG) Dulbecco's modified Eagle's medium (DMEM) ([…], Invitrogen, Carlsbad, Calif., USA) or high-glucose (HG) DMEM ([…]) supplemented with 10% fetal bovine serum (FBS) and […] penicillin/streptomycin in an atmosphere of 5% CO2 at 37° C. These cells were then treated with tested compounds at various concentrations for 24 h. After treatments, cells were lysed in a buffer containing 20 mM Tris-HCl (pH 7.5), 0.9% NaCl, 0.2% Triton X-100, and 1% of the protease inhibitor cocktail (Sigma-Aldrich, Milan, Italy) and then stored at −80° C. for further western blot analysis. All the analyses were conducted on cells between the third and the sixth passage.
(§2) Proteins (20-30 μg) were separated on CriterionTGX™ gel (4-20%) and transferred on Immuno-PVDF membrane (Biorad, Milan, Italy) for 1 h. Blots were incubated with the primary antibody at 4° C. overnight. All the polyclonal antibodies for the protein of interest were purchased from Santa Cruz Biotechnology, Inc., Dallas, TX, USA. Then, blots were washed 3 times for 10 minutes with 1×TBS, 0.1% Tween® 20 and incubated for 1 h with secondary antibody (peroxidase-coupled anti rabbit in 1×TBS, 0.1% Tween®20). […] Band densitometric analysis was performed using Image Lab Software (Biorad, Milan, Italy).
(§3) The liver is a major organ responsible for most functions of cellular metabolism and a mediator between dietary and endogenous sources of energy for extrahepatic tissues. In this context, AMPK constitutes an intrahepatic energy sensor regulating physiological energy dynamics by limiting anabolism and stimulating catabolism, thus increasing ATP availability. Once activated, AMPK phosphorylates its downstream substrates to reduce ATP-consuming anabolic pathways, including cholesterol, fatty acid, and triacylglycerol synthesis, and increases ATP-generating catabolic pathways, including fatty acid oxidation and lipolysis. […]

[4] = system: ACC; experiment: Western blot of phosphorylated ACC in HepG2 cells; assay type: cell-based, Human; conditions: twenty-four hours of treatment
Method: as §1, §2, §3

[5] = system: HepG2 cells; experiment: Cell viability MTT assay; assay type: cell-based; conditions: 1-10 μM, 24 h
Method: HepG2 cells were seeded in a 96-well plate (Corning, USA) at a density of 1.0×10^4 cells/well with DMEM (200 μl/well), and then incubated for 24 h according to routine procedure. After being treated with test compounds (1-10 μM) and incubated for 24 h (8 wells for each sample), 20 μL/well MTT (5 g/L) was added to each well. The medium was then removed after 4 h incubation and 100 μL/well sodium dodecyl sulfate (SDS)-HCl solution was added to dissolve the reduced formazan product after incubation for 16 h at 37° C. Finally, the plate was read at 570 nm, using a micro-plate reader (Bio-Rad 680, USA).

[6] = system: HepG2 cells; experiment: Total lipid accumulation by Oil Red O staining; assay type: cell-based, Human; conditions: 25 μM
Method: Total lipid accumulation was evaluated according to the method previously described by Liu et al.. […] Cloroquine (25 μM) and Isoproterenol (10 μM) were used as positive controls. Subsequently, after collecting the growth media to be used to perform glycerol level measurements (as detailed below), cells were rinsed twice with PBS and fixed in 4% paraformaldehyde in PBS for 30 min. Then, cells were stained with Oil Red O working solution for 1 h at room temperature and subsequently rinsed with water.
The Oil Red O stock solution was prepared by dissolving 0.35 g of Oil Red O (Sigma Aldrich, Milan, Italy) in 100 mL of isopropanol by gentle heating and then cooled and filtered through a 0.45 μm filter. The working solution was prepared by diluting three parts of the stock solution in two parts of MilliQ water (stock solution:MilliQ water; 3:2 v/v). The cell images were captured with a Leitz Fluovert FU (Leica Microsystems, Wetzlar, Germany) microscope. Lipids appeared red. For quantitative analysis of cellular lipids, 1 mL isopropanol was added to each well of the stained culture plate. The extracted dye was immediately removed by gentle pipetting and its absorbance was measured at 510 nm.

Cc1cc(OCC(=O)O)cc(C)c1Cc1ccc(O)c(C(C)C)c1 [GC-1, Sobetirome, reference compound]
pancreatic acinar cell proliferation (BrdU-positive acinar cells) [1]: Several BrdU-positive acinar cells were observed | solubility in water [2]: insoluble compound in water

N[C@@H](Cc1cc(I)c(Oc2ccc(O)c(I)c2)c(I)c1)C(=O)O [Compound T3, 3,5,3′-triiodothyronine, reference compound]
expression of p-AMPK [3]: significantly (p<0.05) increased | ACC phosphorylation (p-ACC) [4]: significant ACC phosphorylation | cell viability (cell death with respect to control) [5]: did not significantly (p<0.05) cause cell death

CCN(CC)CCCC(C)Nc1ccnc2cc(Cl)ccc12 (stereo not drawn) [Cloroquine]
red lipid droplets (Oil Red O), steatosis-inducing positive control [6]: high amount of red lipid droplets
